Measured values published in US20060035920A1, “Chk-1 inhibitors” (Millennium Pharmaceuticals, Inc., priority 2004, published 2006).

biological target: T1, Recombinant human Chk1 (GST-Chk1) (Homo sapiens, UniProt O14757); test: Chk1 DELFIA Kinase Assay; format: biochemical; settings: GST-Chk1 kinase assay, bound given in nM
T1 construct: made in house; host or cells: insect cells (baculovirus, Bac-to-Bac system)
T1 sequence (O14757 1-476): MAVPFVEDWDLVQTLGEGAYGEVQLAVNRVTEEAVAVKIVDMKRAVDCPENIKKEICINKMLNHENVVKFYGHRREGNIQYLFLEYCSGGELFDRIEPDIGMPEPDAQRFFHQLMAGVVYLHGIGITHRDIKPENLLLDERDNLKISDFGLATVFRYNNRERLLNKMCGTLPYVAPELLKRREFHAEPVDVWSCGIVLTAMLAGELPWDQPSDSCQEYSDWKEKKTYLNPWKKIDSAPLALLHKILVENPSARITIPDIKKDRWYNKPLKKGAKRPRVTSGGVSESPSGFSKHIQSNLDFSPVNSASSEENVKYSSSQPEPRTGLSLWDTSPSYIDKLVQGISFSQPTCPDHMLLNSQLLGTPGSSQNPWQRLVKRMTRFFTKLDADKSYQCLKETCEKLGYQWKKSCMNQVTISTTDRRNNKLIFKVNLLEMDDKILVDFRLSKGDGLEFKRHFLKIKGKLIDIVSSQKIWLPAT
Experimental: Recombinant human Chk1 was expressed as a fusion protein with glutathione S-transferase at the amino-terminus (GST-Chk1) using standard baculovirus vectors and (Bac-to-Bac®) insect cell expression system purchased from GIBCO™ Invitrogen. Recombinant protein expressed in insect cells was purified using glutathione sepharose (Amersham Biotech) using standard procedures described by the manufacturer.
Chk1 DELFIA® Kinase Assay:
Assays (25 μL) utilized 2 nM GST-Chk1 containing 10 mM Tris, pH 7.5, 20% glycerol, 50 mM sodium chloride (NaCl), 0.01% Surfact-Amps® 20, 1 μM peptide stubstrate (Biotin-GLYRSPSMPEN-amide) (SEQ ID NO: 2), 01.% BSA, 2 mM DTT, 4% DMSO, 600 μM ATP, 10 mM MgCl2 and reacted for 50 minutes at room temperature. Reactions were terminated with 100 μL of Stop buffer containing 1% BSA, 10 mM Tris, pH 8.0, 150 mM NaCl, 100 mM EDTA. Stopped reactions (100 μL) were transferred to 96 well NeutrAvidin plates (Pierce) to capture the biotin-peptide substrate during a 30 minute room temperature incubation. Wells were washed and reacted with 100 μL PerkinElmer Wallac Assay Buffer containing 21.5 ng/ml anti-phospho-Ser216-Cdc25c rabbit polyclonal antibody from Cell Signaling Technology (Beverly, Mass.) and 292 ng/ml europium labeled anti-rabbit-IgG for 1 hour at room temperature. Wells were washed and europium released from the bound antibody by addition of Enhancement Solution (100 μL) (PerkinElmer Wallac) and detected using a Perkin Elmer Wallac Envison™ 2100 multilabel reader using standard manufacturer settings.

IC50, < 500 nM:
CCn1c(=O)c2c(C)[nH]nc2c2cc(C#CCN3[C@H](C)CC[C@H]3C)ccc21 (racemic) [Compound I-2, 8-{3-[(2S,5S)-2,5-dimethylpyrrolidin-1-yl]prop-1-yn-1-yl}-5-ethyl-3-methyl-2,5-dihydro-4H-pyrazolo[4,3-c]quinolin-4-one]
CCn1c(=O)c2c(C)[nH]nc2c2cc(/C=C/CN3[C@@H](C)CC[C@@H]3C)ccc21 (racemic) [Compound I-40, 8-{(1E)-3-[(2S,5S)-2,5-dimethylpyrrolidin-1-yl]prop-1-en-1-yl}-5-ethyl-3-methyl-2,5-dihydro-4H-pyrazolo[4,3-c]quinolin-4-one]
CCN(CC)CC#Cc1ccc2c(c1)c1n[nH]c(C)c1c(=O)n2CC [Compound I-1, 8-[3-(diethylamino)prop-1-yn-1-yl]-5-ethyl-3-methyl-2,5-dihydro-4H-pyrazolo[4,3-c]quinolin-4-one]
CCn1c(=O)c2c(C)[nH]nc2c2cc(C#CCN3[C@H](C)CC[C@@H]3C)ccc21 [Compound I-3, 8-{3-[(2R,5S)-2,5-dimethylpyrrolidin-1-yl]prop-1-yn-1-yl}-5-ethyl-3-methyl-2,5-dihydro-4H-pyrazolo[4,3-c]quinolin-4-one]
Cc1[nH]nc2c1c(=O)n(CC(F)F)c1ccc(C#CCN3CCCC3)cc21 [Compound I-4, 5-(2,2-difluoroethyl)-3-methyl-8-(3-pyrrolidin-1-ylprop-1-yn-1-yl)-2,5-dihydro-4H-pyrazolo[4,3-c]quinolin-4-one]
COCCn1c(=O)c2c(C)[nH]nc2c2cc(C#CCN3CCCC3)ccc21 [Compound I-5, 5-(2-methoxyethyl)-3-methyl-8-(3-pyrrolidin-1-ylprop-1-yn-1-yl)-2,5-dihydro-4H-pyrazolo[4,3-c]quinolin-4-one]
Cc1[nH]nc2c1c(=O)n(CC1CC1)c1ccc(C#CCN3CCCC3)cc21 [Compound I-6, 5-(cyclopropylmethyl)-3-methyl-8-(3-pyrrolidin-1-ylprop-1-yn-1-yl)-2,5-dihydro-4H-pyrazolo[4,3-c]quinolin-4-one]
CCn1c(=O)c2c(C)[nH]nc2c2cc(C#CCN3CCOCC3)ccc21 [Compound I-7, 5-ethyl-3-methyl-8-(3-morpholin-4-ylprop-1-yn-1-yl)-2,5-dihydro-4H-pyrazolo[4,3-c]quinolin-4-one]
CCn1c(=O)c2c(C)[nH]nc2c2cc(C#CCN3CCN(C)CC3)ccc21 [Compound I-8, 5-ethyl-3-methyl-8-[3-(4-methylpiperazin-1-yl)prop-1-yn-1-yl]-2,5-dihydro-4H-pyrazolo[4,3-c]quinolin-4-one]
CCn1c(=O)c2c(C)[nH]nc2c2cc(C#CCN3CCCCC3)ccc21 [Compound I-9, 5-ethyl-3-methyl-8-(3-piperidin-1-ylprop-1-yn-1-yl)-2,5-dihydro-4H-pyrazolo[4,3-c]quinolin-4-one]
Cc1[nH]nc2c1c(=O)n(CCF)c1ccc(C#CCN3CCCC3)cc21 [Compound I-10, 5-(2-fluoroethyl)-3-methyl-8-(3-pyrrolidin-1-ylprop-1-yn-1-yl)-2,5-dihydro-4H-pyrazolo[4,3-c]quinolin-4-one]
CCn1c(=O)c2c(C)[nH]nc2c2cc(C#CCN(C)C)ccc21 [Compound I-11, 8-[3-(dimethylamino)prop-1-yn-1-yl]-5-ethyl-3-methyl-2,5-dihydro-4H-pyrazolo[4,3-c]quinolin-4-one]
Cc1[nH]nc2c1c(=O)n(C)c1ccc(C#CCN3CCCC3)cc21 [Compound I-12, 3,5-dimethyl-8-(3-pyrrolidin-1-ylprop-1-yn-1-yl)-2,5-dihydro-4H-pyrazolo[4,3-c]quinolin-4-one]
Cc1[nH]nc2c1c(=O)[nH]c1ccc(C#CCN3CCCC3)cc12 [Compound I-13, 3-methyl-8-(3-pyrrolidin-1-ylprop-1-yn-1-yl)-2,5-dihydro-4H-pyrazolo[4,3-c]quinolin-4-one]
CCn1c(=O)c2c(CCOC)[nH]nc2c2cc(C#CCN3CCCC3)ccc21 [Compound I-14, 5-ethyl-3-(2-methoxyethyl)-8-(3-pyrrolidin-1-ylprop-1-yn-1-yl)-2,5-dihydro-4H-pyrazolo[4,3-c]quinolin-4-one]
CCn1c(=O)c2c(C)[nH]nc2c2cc(C#CC(C)(C)N)ccc21 [Compound I-15, 8-(3-amino-3-methylbut-1-yn-1-yl)-5-ethyl-3-methyl-2,5-dihydro-4H-pyrazolo[4,3-c]quinolin-4-one]
Cc1[nH]nc2c1c(=O)n(CC(C)C)c1ccc(C#CCN3CCCC3)cc21 [Compound I-16, 5-isobutyl-3-methyl-8-(3-pyrrolidin-1-ylprop-1-yn-1-yl)-2,5-dihydro-4H-pyrazolo[4,3-c]quinolin-4-one]
Cc1[nH]nc2c1c(=O)n(CCO)c1ccc(C#CCN3CCCC3)cc21 [Compound I-17, 5-(2-hydroxyethyl)-3-methyl-8-(3-pyrrolidin-1-ylprop-1-yn-1-yl)-2,5-dihydro-4H-pyrazolo[4,3-c]quinolin-4-one]
Cc1[nH]nc2c1c(=O)n(CCCO)c1ccc(C#CCN3CCCC3)cc21 [Compound I-18, 5-(3-hydroxypropyl)-3-methyl-8-(3-pyrrolidin-1-ylprop-1-yn-1-yl)-2,5-dihydro-4H-pyrazolo[4,3-c]quinolin-4-one]
CCCn1c(=O)c2c(C)[nH]nc2c2cc(C#CCN3CCCC3)ccc21 [Compound I-19, 3-methyl-5-propyl-8-(3-pyrrolidin-1-ylprop-1-yn-1-yl)-2,5-dihydro-4H-pyrazolo[4,3-c]quinolin-4-one]
Cc1[nH]nc2c1c(=O)n(CC(F)(F)F)c1ccc(C#CCN3CCCC3)cc21 [Compound I-20, 3-methyl-8-(3-pyrrolidin-1-ylprop-1-yn-1-yl)-5-(2,2,2-trifluoroethyl)-2,5-dihydro-4H-pyrazolo[4,3-c]quinolin-4-one]
CCn1c(=O)c2c(C)[nH]nc2c2cc(C#CCN3CCCC3)ccc21 [Compound I-21, 5-ethyl-3-methyl-8-(3-pyrrolidin-1-ylprop-1-yn-1-yl)-2,5-dihydro-4H-pyrazolo[4,3-c]quinolin-4-one]
C#Cc1ccc2c(c1)c1n[nH]c(C)c1c(=O)n2C [Compound I-22, 8-ethynyl-3,5-dimethyl-2,5-dihydro-4H-pyrazolo[4,3-c]quinolin-4-one]
Cc1[nH]nc2c1c(=O)n(C)c1ccc(C#CCN)cc21 [Compound I-23, 8-(3-aminoprop-1-yn-1-yl)-3,5-dimethyl-2,5-dihydro-4H-pyrazolo[4,3-c]quinolin-4-one]
Cc1[nH]nc2c1c(=O)n(C)c1ccc(C#CCO)cc21 [Compound I-24, 8-(3-hydroxyprop-1-yn-1-yl)-3,5-dimethyl-2,5-dihydro-4H-pyrazolo[4,3-c]quinolin-4-one]
CCn1c(=O)c2c(C)[nH]nc2c2cc(/C=C/CN3CCCC3)ccc21 [Compound I-25, 5-ethyl-3-methyl-8-[(1E)-3-pyrrolidin-1-ylprop-1-en-1-yl]-2,5-dihydro-4H-pyrazolo[4,3-c]quinolin-4-one]
CCn1c(=O)c2c(C)[nH]nc2c2cc(C#CCN3CCC(F)(F)C3)ccc21 [Compound I-30, 8-[3-(3,3-difluoropyrrolidin-1-yl)prop-1-yn-1-yl]-5-ethyl-3-methyl-2,5-dihydro-4H-pyrazolo[4,3-c]quinolin-4-one]
CCn1c(=O)c2c(C)[nH]nc2c2cc(C#CCN3CCC3)ccc21 [Compound I-31, 8-(3-azetidin-1-ylprop-1-yn-1-yl)-5-ethyl-3-methyl-2,5-dihydro-4H-pyrazolo[4,3-c]quinolin-4-one]
CCn1c(=O)c2c(C)[nH]nc2c2cc(C#CCN(C(C)C)C(C)C)ccc21 [Compound I-36, 8-[3-(diisopropylamino)prop-1-yn-1-yl]-5-ethyl-3-methyl-2,5-dihydro-4H-pyrazolo[4,3-c]quinolin-4-one]
CCn1c(=O)c2c(C)[nH]nc2c2cc(C#CCN3[C@H](C)CCC[C@@H]3C)ccc21 [Compound I-37, 8-{3-[(2R,6S)-2,6-dimethylpiperidin-1-yl]prop-1-yn-1-yl}-5-ethyl-3-methyl-2,5-dihydro-4H-pyrazolo[4,3-c]quinolin-4-one]
